Test results published in patent publication US20250206773A1, “FORMS AND COMPOSITIONS OF SODIUM CHENODEOXYCHOLATE” (Syntis Bio, Inc., priority 2022, published 2025).

Experiments:
[1] = format: physicochemical; conditions: pH 7.4
Experimental: Solubility curve measurements of NaCDC Form A and Form B were performed using a Crystal16 automatic crystallizer (Technobis Crystallization Systems), having an array of 16 microreactors equipped with turbidimeters for the determination of clear and cloud points. Samples of four different concentrations for each crystalline form were prepared by weighing accurately different amounts of each sample and adding 1000 μL of phosphate buffer (pH 7.4) to each vial. The suspensions thus obtained were stirred using a magnetic stirrer and heated from 0° C. to 90° C. at 0.5° C./min. The clear point for each sample was determined and plotted to obtain a crystallization curve (FIG. 13).

[2] = Exposure to moist air (RH 95%, room temperature), XRPD before/after; format: physicochemical
Experimental: FIG. 4 is a series of XRPD patterns, showing NaCDC Form A before (thick line) and after (thin line) 15 hours of exposure to RH 95% at room temperature. FIG. 8 is a series of XRPD patterns, showing NaCDC Form B before (thick line) and after (thin line) 15 hours of exposure to RH 95% at room temperature.

[3] = Polymorph screening: slurry (XRPD, HPLC of recovered solids); format: physicochemical; conditions: slurry 7 days
Experimental: Around 15 mg of NaCDC Form B was weighted into HPLC vials, and the appropriate volume of solvent was added at RT. Slurries were aged for 7 days under stirring (500 rpm), at multiple temperatures: 5° C., 25-30° C., 40° C., and 50° C. All solids were air-dried on filter paper and then analyzed by XRPD. Depending on the results obtained by XRPD and material availability, some experiments were analyzed by HTPLC and TG/DSC.

[4] = Dynamic vapor sorption (DVS) hygroscopicity; format: physicochemical; conditions: 25° C.
Experimental: DVS measurements were performed with a SMS—DVS Intrinsic. The sample size was about 50 mg, accurately weighed. The measurement was performed at 25° C., the relative humidity (RH) range investigated was 40-90-0-90% RH with 10% RH steps. After each RH change, the mass of the sample was allowed to stabilize (waiting time 10 to 60 minutes, stabilization criterion ≤0.002 g for 10 minutes). The hygroscopicity of the sample was calculated as follows: [formula] • where: • W1: weight of sample at the start of the experiment (25° C. and 40% RH) • W2: weight of sample at 25° C. and 80% RH in the first sorption cycle High Pressure Liquid Chromatography (HPLC)

[5] = SL70, Methyl ethyl ketone (MEK), 50° C.

C[C@H](CCC(=O)[O-])[C@H]1CC[C@H]2[C@@H]3[C@H](O)C[C@@H]4C[C@H](O)CC[C@]4(C)[C@H]3CC[C@]12C.[Na+] [Form B, sodium chenodeoxycholate]
solubility compared to NaCDC Form A (solubility curve) [1]: slightly higher solubility | effect of exposure to moist air (XRPD) ([2]; 15-20 hours at 95% humidity): eventual amorphization | loss of crystallinity on moist air exposure compared with Form A ([2]; 95% humidity): markedly slower | HPLC purity (%) at 212 nm ([3]; SL01, Ethanol (EtOH), 5° C.): 89.70% | XRPD ([3]; SL05, Methylcyclohexane, 5° C.): SM, P.O. | XRPD ([3]; SL06, n-Heptane, 5° C.): SM, l.c. | HPLC purity (%) at 212 nm ([3]; SL13, tert-Butyl methyl ether, 5° C.): 87.21% | XRPD ([3]; SL15, Tetrahydrofuran (THF), 5° C.): SM, l.c. | XRPD ([3]; SL19, Acetonitrile (MeCN), 5° C.): SM, l.c. | HPLC purity (%) at 212 nm ([3]; SL22, EtOH:MeCN (1:1 v/v), 5° C.): 91.93% | HPLC purity (%) at 212 nm ([3]; SL23, EtOH:n-Heptane (1:1 v/v), 5° C.): 93.64% | HPLC purity (%) at 212 nm ([3]; SL26, Ethanol (EtOH), 25-30° C.): 92.34% | HPLC purity (%) at 212 nm ([3]; SL27, 2-Propanol (2-PrOH), 25-30° C.): 88.33% | XRPD ([3]; SL28, 2-Methyl-1-propanol (Isobutanol), 25-30° C.): l.c., SM | XRPD ([3]; SL29, 2-Butanol, 25-30° C.): SM, l.c. | XRPD ([3]; SL31, Methylcyclohexane, 25-30° C., solvent almost evap./consumed on the 7th day): SM, l.c. | HPLC purity (%) at 212 nm ([3]; SL39, tert-Butyl methyl ether, 25-30° C.): 84.05% | XRPD ([3]; SL41, Tetrahydrofuran (THF), 25-30° C.): SM, l.c. | HPLC purity (%) at 212 nm ([3]; SL48, EtOH:MeCN (1:1 v/v), 25-30° C.): 83.87% | HPLC purity (%) at 212 nm ([3]; SL49, EtOH:n-Heptane (1:1 v/v), 25-30° C.): 93.06% | HPLC purity (%) at 212 nm ([3]; SL52, Ethanol (EtOH), 40° C.): 87.98% | HPLC purity (%) at 212 nm ([3]; SL56, 2-Propanol (2-PrOH), 50° C.): 84.92% | XRPD ([3]; SL60, n-Heptane, 50° C., solvent almost evap./consumed on 7th day): l.c., SM | HPLC purity (%) at 212 nm ([3]; SL68, Tetrahydrofuran (THF), 50° C.): 78.16% | HPLC purity (%) at 212 nm [3, 5]: 90.88% | XRPD [3, 5]: SM, h.c. | HPLC purity (%) at 212 nm ([3]; SL74, EtOH:MeCN (1:1 v/v), 50° C.): 78.36% | HPLC purity (%) at 212 nm ([3]; SL75, EtOH:n-Heptane (1:1 v/v), 50° C.): 85.10% | hygroscopicity by DVS [4]: slightly hygroscopic | weight change in the first sorption cycle (DVS) ([4]; 40% RH to 80% RH): 0.8%
